In ChEMBL document CHEMBL6103589, “Synthesis and evaluation of novel ebselen derivatives as urease inhibitors for combating Helicobacter pylori infections” (Eur J Med Chem, 2025):
In brackets after ≈: the same amount, converted by molar mass. Activity calls are given as the source filed them. No cut-off for these calls is given here.

Key:
[1] = test system: Helicobacter pylori; test: Protection against Helicobacter pylori ATCC 43504 infected (MOI 25:1) in human GES1 cell injury model assessed as late apoptotic cells at 50 uM pre-treated for 2 hrs measured after 6 hrs by Annexin/V-FITC staining based flow cytometry analysis (reference value: 0.31%); assay type: functional; conditions: time 8 hrs
[2] = test system: Helicobacter pylori; test: (§1) Protection against Helicobacter pylori ATCC 43504 infected (MOI 100:1) in human GES1 cell injury model assessed as viable cells at 50 uM pre-treated for 2 hrs followed by bacterial infection measured after 6 hrs by Annexin/V-FITC staining based flow cytometry analysis (reference value: 68.36%); assay type: functional; conditions: time 8 hrs
[3] = test system: Helicobacter pylori; test: (§2) Protection against Helicobacter pylori ATCC 43504 infected (MOI 200:1) in human GES1 cell injury model assessed as viable cells at 25 uM pre-treated for 2 hrs followed by bacterial infection measured after 6 hrs by Annexin/V-FITC staining based flow cytometry analysis (reference value: 57.87%); assay type: functional; conditions: time 8 hrs
[4] = test system: Helicobacter pylori; test: as §1, with “as early apoptotic” for “as viable”, “at 25” for “at 50”, “value: 24.66 %)” for “value: 68.36%)”; assay type: functional; conditions: time 8 hrs
[5] = test system: Helicobacter pylori; test: Protection against Helicobacter pylori ATCC 43504 infected (MOI 50:1) in human GES1 cell injury model assessed as necrotic cells at 25 uM pre-treated for 2 hrs followed by bacterial infection measured after 6 hrs by Annexin/V-FITC staining based flow cytometry analysis (reference value: 2.85%); assay type: functional; conditions: time 8 hrs
[6] = test system: Helicobacter pylori; test: as §2, with “300:1)” for “200:1)”, “late apoptotic” for “viable”, “11.95%)” for “57.87%)”; assay type: functional; conditions: time 8 hrs
[7] = test system: GES1; test: Induction of ROS generation in human GES1 cells infected (25 to 400:1 MOI) with Helicobacter pylori ATCC 43504 assessed as decrease in fluorescence intensity at 25 to 50 uM by DCFH-DA based Immunofluorescence analysis; assay type: functional, cell-based; conditions: dose 25-50 µM
[8] = test system: Helicobacter pylori; test: Protection against Helicobacter pylori ATCC 43504 infected (MOI 25:1) in human GES1 cell injury model assessed as necrotic cells at 25 uM pre-treated for 2 hrs followed by bacterial infection measured after 6 hrs by Annexin/V-FITC staining based flow cytometry analysis (reference value: 0.66%); assay type: functional; conditions: time 8 hrs
[9] = test system: Helicobacter pylori; test: In vivo protection against Helicobacter pylori ATCC 43504 infected in BALB/c mouse gastric mucosa model assessed as appearance of intact tissue structure at low dose administered once a day for 2 weeks by HE staining based analysis; assay type: functional, organism-based
[10] = test system: Helicobacter pylori; test: (§3) Protection against Helicobacter pylori ATCC 43504 infected (MOI 300:1) in human GES1 cell injury model assessed as viable cells at 25 uM pre-treated for 2 hrs followed by bacterial infection measured after 6 hrs by Annexin/V-FITC staining based flow cytometry analysis (reference value: 47.43%); assay type: functional; conditions: time 8 hrs
[11] = test system: Helicobacter pylori; test: as §2, with “400:1)” for “200:1)”, “reduction in cell apoptosis rate” for “viable cells”, “56.03%)” for “57.87%)”; assay type: functional; design: scale not given: the % may be the effect or the level left; conditions: time 8 hrs
[12] = test system: Helicobacter pylori; test: Protection against Helicobacter pylori ATCC 43504 infected (MOI 300:1) in human GES1 cell injury model assessed as necrotic cells at 25 uM pre-treated for 2 hrs followed by bacterial infection measured after 6 hrs by Annexin/V-FITC staining based flow cytometry analysis (reference value: 6.05%); assay type: functional; conditions: time 8 hrs
[13] = test system: Helicobacter pylori; test: In vivo protection against Helicobacter pylori ATCC 43504 infected in BALB/c mouse gastric mucosa model assessed as effect on hyperplasia at low dose administered once a day for 2 weeks by HE staining based analysis; assay type: functional, organism-based
[14] = Acute toxicity in BALB/c mouse assessed as pathological abnormality in kidney at 1 g/Kg, po single dose administered for 7 days by HE staining based analysis; assay type: organism-based; conditions: in vivo, 1000 mg/kg, 168 h, time 7 day
[15] = test system: Helicobacter pylori; test: as §1, with “50:1)” for “100:1)”, “early apoptotic” for “viable”, “13.16 %)” for “68.36%)”; assay type: functional; conditions: time 8 hrs
[16] = test system: Helicobacter pylori; test: Protection against Helicobacter pylori ATCC 43504 infected (MOI 200:1) in human GES1 cell injury model assessed as necrotic cells at 50 uM pre-treated for 2 hrs followed by bacterial infection measured after 6 hrs by Annexin/V-FITC staining based flow cytometry analysis (reference value: 3.92%); assay type: functional; conditions: time 8 hrs
[17] = test system: Helicobacter pylori; test: Protection against Helicobacter pylori ATCC 43504 infected (MOI 50:1) in human GES1 cell injury model assessed as late apoptotic cells at 25 uM pre-treated for 2 hrs measured after 6 hrs by Annexin/V-FITC staining based flow cytometry analysis (reference value: 2.85%); assay type: functional; conditions: time 8 hrs
[18] = test system: Helicobacter pylori; test: as §2, with “400:1)” for “200:1)”, “early apoptotic” for “viable”, “42.41 %)” for “57.87%)”; assay type: functional; conditions: time 8 hrs
[19] = Acute toxicity in BALB/c mouse assessed as pathological abnormality in liver at 1 g/Kg, po single dose administered for 7 days by HE staining based analysis; assay type: organism-based; conditions: in vivo, 1000 mg/kg, 168 h, time 7 day
[20] = Acute toxicity in BALB/c mouse assessed as pathological abnormality in heart at 1 g/Kg, po single dose administered for 7 days by HE staining based analysis; assay type: organism-based; conditions: in vivo, 1000 mg/kg, 168 h, time 7 day
[21] = test system: Helicobacter pylori; test: (§4) Protection against Helicobacter pylori ATCC 43504 infected (MOI 300:1) in human GES1 cell injury model assessed as necrotic cells at 50 uM pre-treated for 2 hrs followed by bacterial infection measured after 6 hrs by Annexin/V-FITC staining based flow cytometry analysis (reference value: 6.05%); assay type: functional; conditions: time 8 hrs
[22] = test system: Helicobacter pylori; test: as §2, with “early apoptotic” for “viable”, “31.93 %)” for “57.87%)”; assay type: functional; conditions: time 8 hrs
[23] = test system: GES1; test: Induction of DNA damage in human GES1 cells infected (25 to 400:1 MOI) with Helicobacter pylori ATCC 43504 assessed as increase in gammaH2AX levels at 25 to 50 uM by SP8 laser confocal microscopic analysis; assay type: functional, cell-based; conditions: dose 25-50 µM
[24] = test system: Helicobacter pylori; test: as §4, with “early apoptotic” for “necrotic”, “34.57 %)” for “6.05%)”; assay type: functional; conditions: time 8 hrs
[25] = test system: Helicobacter pylori; test: In vivo protection against Helicobacter pylori ATCC 43504 infected in BALB/c mouse gastric mucosa model assessed as appearance of intact sub-mucosa at high dose administered once a day for 2 weeks by HE staining based analysis; assay type: functional, organism-based
[26] = test system: Helicobacter pylori; test: as §3, with “early apoptotic” for “viable”, “34.57 %)” for “47.43%)”; assay type: functional; conditions: time 8 hrs
[27] = test system: Helicobacter pylori; test: Antibacterial activity against Helicobacter pylori ATCC 43504 incubated for 24 hrs by broth dilution method; assay type: functional; conditions: dose 1-64 […]
[28] = test system: Helicobacter pylori; test: In vivo protection against Helicobacter pylori ATCC 43504 infected in BALB/c mouse gastric mucosa model assessed as effect on hyperplasia at high dose administered once a day for 2 weeks by HE staining based analysis; assay type: functional, organism-based

O=C(Oc1n[se]c2ccccc12)c1cccc(F)c1
Activity [1]: 0%
Activity [2]: 96.82%
Activity [3]: 87.8%
Activity [4]: 7.64%
Activity [5]: 0.14%
Activity [6]: 0.02%
Activity [7]: Active
Activity [8]: 0.02%
Activity [9]: Active
Activity [10]: 83.86%
Activity [11]: 38.48%
Activity [12]: 0.31%
Activity [13]: inactive
Activity [14]: Non-toxic
Activity [15]: 2.91%
Activity [16]: 0.8%
Activity [17]: 0.05%
Activity [18]: 17.23%
Activity [19]: Non-toxic
Activity [20]: Non-toxic
Activity [21]: 2.01%
Activity [22]: 12.06%
Activity [23]: Active
Activity [24]: 3.14%
Activity [25]: Active
Activity [26]: 15.81%
Activity [27]: Dose-dependent-effect
MIC [27]: 8 µg/mL (≈ 25 µM)
Activity [28]: inactive
